The values that follow come from patent publication US20260297542A1, “HERBICIDE RESISTANT PLANTS” (SYNGENTA CROP PROTECTION AG, priority 2023, published 2026).

Test [1] has as its target T1, AtPPO1 S305L Y362F G404A (SEQ ID NO.129) (Arabidopsis thaliana, UniProt P55826, G404A/S305L/Y362F).
T1 construct: made in house; host or cells: E. coli BL21 (DE3) hemG, crude extract
T1 sequence (P55826 35-537 S305L/Y362F/G404A): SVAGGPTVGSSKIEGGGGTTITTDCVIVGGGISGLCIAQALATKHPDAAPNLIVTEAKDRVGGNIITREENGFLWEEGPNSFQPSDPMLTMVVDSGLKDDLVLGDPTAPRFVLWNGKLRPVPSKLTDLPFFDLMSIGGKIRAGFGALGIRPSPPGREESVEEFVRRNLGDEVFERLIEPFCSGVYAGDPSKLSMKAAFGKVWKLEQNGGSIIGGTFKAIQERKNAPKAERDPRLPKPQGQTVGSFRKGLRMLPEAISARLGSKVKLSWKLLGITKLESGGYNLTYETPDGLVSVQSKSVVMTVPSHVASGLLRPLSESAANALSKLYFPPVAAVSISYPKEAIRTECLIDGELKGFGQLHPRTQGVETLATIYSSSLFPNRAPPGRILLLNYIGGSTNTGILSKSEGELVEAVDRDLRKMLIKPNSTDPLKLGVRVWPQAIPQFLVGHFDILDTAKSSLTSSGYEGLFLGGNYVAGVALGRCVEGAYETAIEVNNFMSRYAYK
The test can be described thus: fluorescent Protoporphyrinogen Oxidase assay, crude extract. Type of test: biochemical. To be noted: read-out: percentage inhibition.

For test [2], the target named is T2, AtPPO1 S305L V365M (SEQ ID NO.128) (Arabidopsis thaliana, UniProt P55826, S305L/V365M).
T2 construct: made in house; host or cells: E. coli BL21 (DE3) hemG, crude extract
T2 sequence (P55826 35-537 S305L/V365M): T1 sequence (P55826 35-537 S305L/Y362F/G404A) with F328Y, V331M, A370G
Described as above. Type of test: biochemical. The conditions noted are these: read-out: percentage inhibition.

Changes are numbered by the printed parent chain.

With `C#CCN1C(=O)C(F)(F)Oc2cc(F)c(-n3c(=O)n(C)c(=S)n(C)c3=O)cc21` [Herbicide B, trifludimoxazin], in test [1], the inhibition (usually the relative decrease from the control value, in per cent) at 0.1 ppm turned out to be 70%; the inhibition at 1 ppm amounted to 93%; the inhibition at 10 ppm was found to be 97%; the inhibition at 100 ppm was determined as 100%. In test [2], the inhibition at 0.1 ppm came out at 100%, the inhibition at 1 ppm was 97%, the inhibition at 10 ppm amounted to 95% and the inhibition at 100 ppm stood at 100%.

Take `CCOC(=O)COc1ncccc1Oc1cc(-n2c(=O)cc(C(F)(F)F)n(C)c2=O)c(F)cc1Cl` [Herbicide A, epyrifenacil]: in test [1], the inhibition at 0.1 ppm stood at 25%, the inhibition at 1 ppm came out at 78%, the inhibition at 10 ppm is 92% and the inhibition at 100 ppm amounted to 100%. Further, in test [2], the inhibition at 0.1 ppm came out at 41%, the inhibition at 1 ppm is 64%, the inhibition at 10 ppm turned out to be 92% and the inhibition at 100 ppm is 91%.

Take `CCOC(=O)[C@]1(C)CC(c2cc(-n3c(=O)n(C)c(=S)n(C)c3=O)c(F)cc2Cl)=NO1` [Herbicide D, ethyl (5S)-3-[2-chloro-5-(3,5-dimethyl-2,6-dioxo-4-thioxo-1,3,5-triazinan-1-yl)-4-fluoro-phenyl]-5-methyl-4H-isoxazole-5-carboxylate]: in test [1], the inhibition at 0.1 ppm turned out to be 9%, the inhibition at 1 ppm was found to be 45%, the inhibition at 10 ppm stood at 83% and the inhibition at 100 ppm came to 96%. Further, in test [2], the inhibition at 0.1 ppm was 51%, the inhibition at 1 ppm came out at 84%, the inhibition at 10 ppm was 96% and the inhibition at 100 ppm turned out to be 100%.

For the molecule `CC(C)N(C)S(=O)(=O)NC(=O)c1cc(-n2c(=O)cc(C(F)(F)F)n(C)c2=O)c(F)cc1Cl` [Herbicide E, saflufenacil], in test [1], the inhibition at 0.1 ppm amounted to 15%, the inhibition at 1 ppm amounted to 53%, the inhibition at 10 ppm was 84% and the inhibition at 100 ppm was 100%. Moreover, in test [2], the inhibition at 0.1 ppm is 0%, the inhibition at 1 ppm was found to be 71%, the inhibition at 10 ppm was determined as 91% and the inhibition at 100 ppm was found to be 100%.

With `CCOC(=O)C1(C)CC(c2cc(-n3c(=O)cc(C(F)(F)F)n(C)c3=O)c(F)cc2Cl)=NO1` (stereo not shown) [Herbicide C, 3-(2-chloro-4-fluoro-5-(3-methyl-2,6-dioxo-4-trifluoromethyl-3,6-dihydropyrimidin-1(2H)-yl)phenyl)-5-methyl-4,5-dihydroisoxazole-5-carboxylic acid ethyl ester], in test [1], the inhibition at 0.1 ppm amounted to 24%, the inhibition at 1 ppm was 76%, the inhibition at 10 ppm is 93% and the inhibition at 100 ppm was 100%. In test [2], the inhibition at 0.1 ppm turned out to be 45%, the inhibition at 1 ppm was found to be 76%, the inhibition at 10 ppm is 95% and the inhibition at 100 ppm is 100%.
